Experimental data: PubChem BioAssay (NCI)
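Five compound concentrations were applied to cells in 96-well plates for 48 hours; endpoints were derived by simple linear interpolation of the resulting dose-response curve. TGI is the concentration that stops growth completely.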 Where a SMILES comes first, the peptide text is derived from it. The star is where a group is joined. Boc = CC(C)(C)OC(=O)*; OSu = O=C1CCC(=O)N1O*

What was measured:
Assay in all cases: DTP human tumour cell line panel, 48 h
SR leukemia = tested on: SR leukemia
DU-145 prostate = tested on: DU-145 prostate
A498 renal = tested on: A498 renal
EKVX NSCLC = tested on: EKVX NSCLC
TK-10 renal = tested on: TK-10 renal
A549 NSCLC = tested on: A549 NSCLC
SN12C renal = tested on: SN12C renal
HOP-92 NSCLC = tested on: HOP-92 NSCLC
HCC-2998 colon = tested on: HCC-2998 colon
NCI-H226 lung = tested on: NCI-H226 lung
SK-MEL-2 melanoma = tested on: SK-MEL-2 melanoma
HL-60(TB) leukemia = tested on: HL-60(TB) leukemia

SMILES | TGI (SR leukemia) | TGI (DU-145 prostate) | TGI (A498 renal) | TGI (EKVX NSCLC) | TGI (TK-10 renal) | TGI (A549 NSCLC) | TGI (SN12C renal) | TGI (HOP-92 NSCLC) | TGI (HCC-2998 colon) | TGI (NCI-H226 lung) | TGI (SK-MEL-2 melanoma) | TGI (HL-60(TB) leukemia)
Cc1cc(-c2nc3ccccc3s2)ccc1NS(=O)(=O)O | > 100 µM | > 100 µM | > 100 µM | > 100 µM | > 100 µM | > 100 µM | > 100 µM | > 100 µM | > 100 µM | > 100 µM | – | –
COc1ccc(/C(=C/n2ccnc2)C(=O)c2ccc(OC)c(OC)c2)cc1 | > 100 µM | – | > 100 µM | > 100 µM | > 100 µM | > 100 µM | > 100 µM | > 100 µM | > 100 µM | > 100 µM | > 100 µM | > 100 µM
CC1(C)CC2(C)CC1CC2O (stereo unspecified) | > 100 µM | > 100 µM | – | > 100 µM | > 100 µM | > 100 µM | > 100 µM | – | > 100 µM | > 100 µM | – | > 100 µM
Cc1ccccc1C1OC1C(=O)c1ccccc1N (stereo unspecified) | > 100 µM | > 100 µM | > 100 µM | – | > 100 µM | > 100 µM | > 100 µM | > 100 µM | > 100 µM | > 100 µM | > 100 µM | –
N#C/C(=C\NC(=S)Nc1ccc(S(=O)(=O)Nc2ccccn2)cc1)C(N)=O | > 100 µM | > 100 µM | > 100 µM | > 100 µM | > 100 µM | > 100 µM | > 100 µM | > 100 µM | – | > 100 µM | > 100 µM | –
CCOC(=O)C1=C(C)N(c2ccccc2)C2=C(C(=O)N(c3ccccc3)C2c2ccccc2)C1c1ccccc1 (stereo unspecified) | > 100 µM | – | – | > 100 µM | > 100 µM | > 100 µM | > 100 µM | > 100 µM | > 100 µM | > 100 µM | > 100 µM | > 100 µM
c1ccc([P+](CCNCCNCC[P+](c2ccccc2)(c2ccccc2)c2ccccc2)(c2ccccc2)c2ccccc2)cc1 | – | > 100 µM | > 100 µM | > 100 µM | > 100 µM | > 100 µM | > 100 µM | – | > 100 µM | > 100 µM | > 100 µM | –
N#CCCN(c1ccc(C=Nc2cccc([N+](=O)[O-])c2)cc1)S(=O)(=O)c1ccccc1 | > 100 µM | – | – | > 100 µM | > 100 µM | > 100 µM | > 100 µM | > 100 µM | > 100 µM | > 100 µM | > 100 µM | > 100 µM
COc1ccc2c(c1)c1c(n2CCN2CCOCC2)-c2ccccc2CC1 | 43.7 µM | > 100 µM | > 100 µM | – | > 100 µM | > 100 µM | 69.8 µM | > 100 µM | 41.2 µM | 48.9 µM | 82.5 µM | –
Cc1c(/C=N\NC(=S)N2CCN(C(=S)N/N=C\c3c(C)n(C)n(-c4ccccc4)c3=O)CC2)c(=O)n(-c2ccccc2)n1C | > 100 µM | > 100 µM | > 100 µM | > 100 µM | 33.9 µM | > 100 µM | – | > 100 µM | > 100 µM | > 100 µM | 92.7 µM | –
c1ccc(C[P+]2(c3ccccc3)c3ccccc3-c3ccccc32)cc1 | – | > 100 µM | – | > 100 µM | > 100 µM | > 100 µM | > 100 µM | > 100 µM | > 100 µM | > 100 µM | – | > 100 µM
CC(C)C(Sc1nc(-c2ccccc2)c(-c2ccccc2)[nH]1)C(=O)NNC(=S)Nc1ccccc1 (stereo unspecified) | 64.2 µM | – | 44.5 µM | 61.4 µM | > 100 µM | 60.9 µM | 33.8 µM | 34.3 µM | 17.6 µM | 37.2 µM | 36.6 µM | 40.1 µM
Clc1cc(N/N=C(/c2ccccc2)c2ncccn2)ncn1 | > 100 µM | > 100 µM | – | 93 µM | – | 85.1 µM | > 100 µM | 36.6 µM | > 100 µM | > 100 µM | 82.6 µM | –
CCOC(=O)c1cc2c([N+](=O)[O-])c(NC(C)=O)ccc2s1 | – | > 100 µM | > 100 µM | 98 µM | > 100 µM | > 100 µM | > 100 µM | > 100 µM | > 100 µM | 54.8 µM | > 100 µM | > 100 µM
C[C@]12OC[C@H](c3ccccc3)N1C(=O)C1[C@H]2CC12SCCS2 (stereo partly specified) | > 100 µM | > 100 µM | > 100 µM | > 100 µM | > 100 µM | > 100 µM | > 100 µM | > 100 µM | > 100 µM | > 100 µM | > 100 µM | –
C[N+](C)(C)CC(=O)N/N=c1\cc(C(=O)Nc2ccc(N=O)cc2C#N)oc2cc(O)ccc12 | > 100 µM | – | > 100 µM | > 100 µM | > 100 µM | > 100 µM | > 100 µM | > 100 µM | > 100 µM | > 100 µM | > 100 µM | > 100 µM
Cc1ccc(S(=O)(=O)N2CCN3C(=O)c4ccccc4C32c2ccc(F)cc2)cc1 (stereo unspecified) | 52.8 µM | > 100 µM | 63.5 µM | > 100 µM | > 100 µM | > 100 µM | > 100 µM | – | > 100 µM | > 100 µM | > 100 µM | –
C=CCN(CC=C)Cn1c(=S)sc2ccccc21 | – | > 100 µM | – | > 100 µM | > 100 µM | > 100 µM | > 100 µM | > 100 µM | > 100 µM | – | > 100 µM | 41 µM
CCOC(=O)C(OCC1CC=CCC1)Sc1ccccc1 (stereo unspecified) | > 100 µM | – | > 100 µM | > 100 µM | > 100 µM | > 100 µM | > 100 µM | > 100 µM | > 100 µM | – | > 100 µM | > 100 µM
CC(C)(C)OC(=O)NC(Cc1ccc(O)cc1)C(=O)NC(CCCCN)C(=O)NC(Cc1ccc(O)cc1)C(=O)NC(CCCCN)C(=O)ON1C(=O)CCC1=O (stereo unspecified) (Boc-YKYK-OSu; configuration not given here) | > 100 µM | – | > 100 µM | > 100 µM | > 100 µM | > 100 µM | > 100 µM | > 100 µM | > 100 µM | > 100 µM | > 100 µM | > 100 µM
